These results are taken from PMC4775997, “Imidazopyridazine Inhibitors of Plasmodium falciparum Calcium-Dependent Protein Kinase 1 Also Target Cyclic GMP-Dependent Protein Kinase and Heat Shock Protein 90 To Kill the Parasite at Different Stages of Intracellular Development” (Antimicrobial Agents and Chemotherapy, 2016).

Structures are written as SMILES. Read-outs that look alike come from different tables or passages of the source.

In one assay the test system is 3D7 CDPK1 T145T-HA. The experiment in a line: SYBR green assay, 3D7 CDPK1 T145T-HA line. Type of assay: cell-based. The note with it: Plasmodium falciparum, 3D7, read-out: EC50, 3D7 CDPK1 T145T-HA. How it is done:
(§1) Aliquots of 100 μl of P. falciparum cultures 24 h after erythrocyte invasion were transferred into 96-well culture dishes. Cells were incubated with inhibitors for 48 or 96 h (starting parasitemias were 0.3% and 0.03%, respectively). All drug treatments were carried out in duplicate at a final dimethyl sulfoxide (DMSO) concentration of 0.05%. After incubation, a modification of a previously described SYBR green assay was performed ([27]). Cells were lysed by the addition of 25 μl of buffer (20 mM Tris-HCl, pH 8.0, 2 mM EDTA, pH 8.0, 1.6% Triton X-100, 0.16% saponin, 10× SYBR green I [Life Technologies]). After incubation in the dark for 2 h, fluorescence of the samples was determined using a FLUOStar Omega plate reader (BMG Labtech) with excitation and emission filters of 485 nm and 520 nm, respectively. EC50s were calculated from a four-parameter logistical fit of the data using Prism software (GraphPad Software, Inc.).
(§2) Parasites expressing CDPK1 T145G and CDPK1 T145T were generated as described previously ([28]). Briefly, a region of homology to facilitate integration of the plasmid via single-crossover homologous recombination was amplified from P. falciparum 3D7 genomic DNA at 194 bp upstream of the ATG to bp 435 of the open reading frame using primers 1 and 2 for the wild-type (WT) version and primers 1 and 3 for the glycine version. […]

The test system of another assay is 3D7 CDPK1 T145G-HA. The experiment in a line: SYBR green assay, 3D7 CDPK1 T145G-HA line. Type of assay: cell-based. The note with it: Plasmodium falciparum, 3D7, read-out: EC50, 3D7 CDPK1 T145G-HA. The procedure: as §1, §2
Another assay addresses PfHSP90-NTD (Plasmodium falciparum, UniProt Q8IC05). Nature of the assay: Tryptophan fluorescence binding, PfHSP90 N-terminal domain. An excerpt: PfCDPK1 and PfCDPK1 T145G proteins were produced using methods described elsewhere ([23]). The PfHSP90 N-terminal domain (NTD) comprises the first 223 amino acids of PfHSP90. This region was amplified from the full-length PfHSP90-pRSET-A construct ([32]) using the following primers: primer 7, […]; primer 8, […].
The PCR product was cloned into pRSET-A (Life Technologies) between the BamHI and XhoI sites. Positive clones were confirmed by restriction digestion and sequencing. The clone was transformed into Escherichia coli Rosetta(pLysS) cells, and protein was expressed by induction with 0.1 mM isopropyl β-D-1-thiogalactopyranoside (IPTG) at 37°C for 2 h. […]
Tryptophan fluorescence analysis was performed using a PerkinElmer LS55 luminescence spectrometer. […] Samples were excited at 280 nm, and tryptophan fluorescence measurements were carried out by scanning the emission spectrum in the wavelength range 300 to 400 nm. […] The difference in fluorescence intensity between protein alone and protein with various concentrations of 17-AAG or compound D was calculated and plotted against the different concentrations of the respective ligand used. The resultant hyperbolic curve was analyzed with GraphPad Prism software, using nonlinear regression analysis with single-site-specific binding as described previously ([32]).

A further assay addresses PfHSP90 (Plasmodium falciparum, UniProt Q8IC05). The experiment in a line: Tryptophan fluorescence binding, full-length PfHSP90. How it is done: The PCR product was cloned into pRSET-A (Life Technologies) between the BamHI and XhoI sites. Positive clones were confirmed by restriction digestion and sequencing. The clone was transformed into Escherichia coli Rosetta(pLysS) cells, and protein was expressed by induction with 0.1 mM isopropyl β-D-1-thiogalactopyranoside (IPTG) at 37°C for 2 h. PfHSP90 proteins were purified using Ni-nitrilotriacetic acid (NTA) affinity chromatography (Qiagen) as described in the manufacturer's protocol.
Tryptophan fluorescence analysis was performed using a PerkinElmer LS55 luminescence spectrometer. […] The binding buffer used for the reaction contained 50 mM Tris-HCl, pH 7.4, and 1 mM EDTA. Samples were excited at 280 nm, and tryptophan fluorescence measurements were carried out by scanning the emission spectrum in the wavelength range 300 to 400 nm. A maximum wavelength (λmax) of 346 nm was selected for all the calculations. The slit widths of excitation and emission were set at 2.5 and 5 nm, respectively. The difference in fluorescence intensity between protein alone and protein with various concentrations of 17-AAG or compound D was calculated and plotted against the different concentrations of the respective ligand used. The resultant hyperbolic curve was analyzed with GraphPad Prism software, using nonlinear regression analysis with single-site-specific binding as described previously ([32]).

A further assay has as its target T1, PfPKG (Plasmodium falciparum, UniProt Q8I719).
T1 construct: plasmids (pTrcHisC) encoding full-length PfPKG and PfPKG T618Q with N-terminal His tags; His tag (N); made in house; host or cells: E. coli Rosetta2(DE3)
Nature of the assay: Microfluidic fluorescent shift assay of cGMP-dependent protein kinase activity. Format: biochemical.

The subject of a further assay is 3D7 PKG T618Q. Nature of the assay: microbe, parasite or virus in culture. Type of assay: cell-based, Plasmodium falciparum. Conditions: Plasmodium falciparum, 3D7, 96 h, read-out: Parasite inhibition EC50, 3D7 PKG T618Q.
A further assay deals with T2, PfPKG T618Q (Plasmodium falciparum, UniProt Q8I719, T618Q).
T2 construct: plasmids (pTrcHisC) encoding full-length PfPKG and PfPKG T618Q with N-terminal His tags; His tag (N); made in house; host or cells: E. coli Rosetta2(DE3)
The experiment in a line: biochemical. Format: biochemical.

A further assay relates to trophozoite cell lysate. The experiment in a line: Affinity purification of targets of biotinylated compound D, LC-MS/MS. Type of assay: binding, Plasmodium falciparum. The note with it: biotin linked to R1 group of compound D, streptavidin-agarose. The procedure:
A total of 200 μl of high-capacity streptavidin agarose (Thermo Scientific) was resuspended in 1 ml of 250 μg/ml biotinylated compound D solution or a DMSO control. After incubation with mixing for 1 h at room temperature, unbound compound was removed by extensive washing with phosphate-buffered saline (PBS). The resin was incubated with trophozoite lysate containing 2 mg of protein in a total volume of 1.5 ml overnight at 4°C. The lysate was prepared by resuspending trophozoites in 20 mM Tris-HCl, pH 8.0, 10 mM MgCl2, 250 mM NaCl, 0.5 mM tris(2-carboxyethyl)phosphine (TCEP), 1× protein phosphatase inhibitor (Sigma-Aldrich), 1× complete protease inhibitors (Roche), and 0.1% Triton X-100 (Sigma-Aldrich). Insoluble proteins were removed by centrifugation at 15,000 × g for 20 min, and protein was quantitated using a detergent-compatible (DC) protein assay (Bio-Rad). […]
Proteins were run 4 mm into a 10% NuPAGE Bis-Tris gel (Life Technologies) and then excised using a clean scalpel blade. […] The resulting digests were analyzed by liquid chromatography-tandem mass spectrometry (LC-MS/MS) using an Ultimate 3000 nanoRSLC high-performance liquid chromatograph (HPLC), equipped with a 50-cm by 75-μm Acclaim Pepmap C18 column, coupled to a linear trap quadrupole (LTQ) Orbitrap Velos Pro equipped with a Nanoflex electrospray source (all Thermo Scientific). […]

For assay [1], the system named is P. falciparum 3D7. Nature of the assay: Microscopic examination of Giemsa-stained smears (stage of action).
Assay [2] relates to P. falciparum 3D7. The experiment in a line: SYBR green I growth assay, wild-type parasites. Format: cell-based, Plasmodium falciparum. The note with it: Plasmodium falciparum.
In another assay the target is T3, CDPK1 T145G (Plasmodium falciparum, UniProt P62344, T145G).
T3 construct: PfCDPK1 and PfCDPK1 T145G proteins were produced using methods described elsewhere; made in house
Nature of the assay: ParM ADP biosensor assay, CDPK1 T145G. Format: biochemical.

In a further assay the target is WT CDPK1 (Plasmodium falciparum, UniProt P62344). Nature of the assay: biochemical.
Chain of WT CDPK1 (P62344 whole entry): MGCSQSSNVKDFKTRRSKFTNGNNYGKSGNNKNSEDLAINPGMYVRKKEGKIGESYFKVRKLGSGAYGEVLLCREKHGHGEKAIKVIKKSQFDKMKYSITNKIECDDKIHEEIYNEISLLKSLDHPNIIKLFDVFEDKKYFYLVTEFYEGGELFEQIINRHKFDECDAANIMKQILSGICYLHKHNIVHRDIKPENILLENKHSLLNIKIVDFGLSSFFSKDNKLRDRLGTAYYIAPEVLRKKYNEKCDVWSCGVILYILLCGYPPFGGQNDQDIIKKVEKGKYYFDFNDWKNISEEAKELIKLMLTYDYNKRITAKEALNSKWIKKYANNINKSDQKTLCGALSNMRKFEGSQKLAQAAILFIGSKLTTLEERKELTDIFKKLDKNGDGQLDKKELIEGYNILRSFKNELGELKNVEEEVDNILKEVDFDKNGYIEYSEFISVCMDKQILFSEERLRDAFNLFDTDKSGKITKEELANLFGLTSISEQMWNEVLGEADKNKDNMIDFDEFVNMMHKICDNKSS

Chain of PfHSP90 (Q8IC05 entry or part of it): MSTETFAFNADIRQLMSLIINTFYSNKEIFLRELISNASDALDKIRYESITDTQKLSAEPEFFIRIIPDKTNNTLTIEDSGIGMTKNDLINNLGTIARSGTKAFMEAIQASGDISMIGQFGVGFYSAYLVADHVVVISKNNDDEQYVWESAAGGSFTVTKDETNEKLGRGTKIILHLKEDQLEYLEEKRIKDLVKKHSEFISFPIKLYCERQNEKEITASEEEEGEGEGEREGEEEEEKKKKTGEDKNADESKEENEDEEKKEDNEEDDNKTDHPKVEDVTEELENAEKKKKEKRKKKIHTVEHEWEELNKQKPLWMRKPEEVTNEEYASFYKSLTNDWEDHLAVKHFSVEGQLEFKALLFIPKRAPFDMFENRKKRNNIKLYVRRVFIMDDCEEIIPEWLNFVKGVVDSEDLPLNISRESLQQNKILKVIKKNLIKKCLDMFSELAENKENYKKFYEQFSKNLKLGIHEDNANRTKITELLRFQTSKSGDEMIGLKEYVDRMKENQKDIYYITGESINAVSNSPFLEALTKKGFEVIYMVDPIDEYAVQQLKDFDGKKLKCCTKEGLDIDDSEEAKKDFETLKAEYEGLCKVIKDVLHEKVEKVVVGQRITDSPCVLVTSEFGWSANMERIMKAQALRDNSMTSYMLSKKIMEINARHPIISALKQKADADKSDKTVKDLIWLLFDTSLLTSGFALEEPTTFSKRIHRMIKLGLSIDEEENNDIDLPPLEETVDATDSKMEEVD
Chain of PfHSP90-NTD (Q8IC05 entry or part of it): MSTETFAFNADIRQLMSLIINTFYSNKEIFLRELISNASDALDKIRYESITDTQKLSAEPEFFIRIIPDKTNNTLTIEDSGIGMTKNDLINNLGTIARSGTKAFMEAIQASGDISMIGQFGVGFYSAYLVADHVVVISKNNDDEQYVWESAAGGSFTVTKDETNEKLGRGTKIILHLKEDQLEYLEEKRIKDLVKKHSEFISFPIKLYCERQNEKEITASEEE
T3 sequence (P62344 whole entry T145G): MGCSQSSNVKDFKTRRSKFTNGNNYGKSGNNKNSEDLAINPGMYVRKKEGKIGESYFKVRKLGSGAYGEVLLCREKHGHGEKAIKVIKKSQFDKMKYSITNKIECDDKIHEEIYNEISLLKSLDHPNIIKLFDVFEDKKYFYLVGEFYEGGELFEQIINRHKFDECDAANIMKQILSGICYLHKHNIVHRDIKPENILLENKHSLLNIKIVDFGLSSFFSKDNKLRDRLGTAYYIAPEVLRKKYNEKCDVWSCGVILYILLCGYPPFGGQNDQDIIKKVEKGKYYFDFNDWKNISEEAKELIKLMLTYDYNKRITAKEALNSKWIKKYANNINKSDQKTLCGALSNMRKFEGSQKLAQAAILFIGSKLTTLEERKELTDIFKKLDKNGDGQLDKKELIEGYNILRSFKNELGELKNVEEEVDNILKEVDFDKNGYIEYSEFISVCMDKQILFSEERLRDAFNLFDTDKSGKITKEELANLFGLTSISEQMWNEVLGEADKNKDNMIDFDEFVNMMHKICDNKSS
T2 sequence (Q8I719 whole entry T618Q): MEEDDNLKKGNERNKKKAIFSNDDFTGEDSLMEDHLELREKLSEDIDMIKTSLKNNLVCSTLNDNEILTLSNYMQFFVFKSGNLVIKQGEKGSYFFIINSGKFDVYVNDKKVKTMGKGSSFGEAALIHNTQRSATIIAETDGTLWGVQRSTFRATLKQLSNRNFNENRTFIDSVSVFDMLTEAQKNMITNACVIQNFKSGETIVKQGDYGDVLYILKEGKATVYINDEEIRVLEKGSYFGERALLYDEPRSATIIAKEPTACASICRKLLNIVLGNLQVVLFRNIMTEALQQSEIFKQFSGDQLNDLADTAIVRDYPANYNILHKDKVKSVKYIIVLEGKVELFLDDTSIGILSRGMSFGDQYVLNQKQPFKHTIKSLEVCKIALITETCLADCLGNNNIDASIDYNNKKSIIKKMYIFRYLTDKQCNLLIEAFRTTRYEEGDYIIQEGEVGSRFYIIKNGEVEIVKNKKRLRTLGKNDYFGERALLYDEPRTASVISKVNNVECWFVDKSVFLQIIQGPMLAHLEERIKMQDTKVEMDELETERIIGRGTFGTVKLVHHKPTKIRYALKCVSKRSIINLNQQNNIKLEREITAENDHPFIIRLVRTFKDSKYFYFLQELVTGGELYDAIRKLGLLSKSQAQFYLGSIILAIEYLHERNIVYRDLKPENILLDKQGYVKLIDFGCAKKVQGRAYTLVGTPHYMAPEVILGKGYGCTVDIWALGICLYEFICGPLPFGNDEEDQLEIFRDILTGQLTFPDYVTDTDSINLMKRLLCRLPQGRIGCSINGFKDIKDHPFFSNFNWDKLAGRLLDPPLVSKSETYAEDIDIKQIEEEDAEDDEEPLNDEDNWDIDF

The EC50 is the concentration at which the effect is half-maximal. Take `CC(C)(C)n1nc(Cc2cccc3ccccc23)c2c(N)ncnc21` [NM-PP1, 1-(1,1-dimethylethyl)-3-(1-naphthalenylmethyl)-1H-pyrazolo[3,4-d]pyrimidin-4-amine]: the concentration giving a half-maximal response (EC50) with 3D7 CDPK1 T145T-HA turned out to be 11.6 µM; with 3D7 CDPK1 T145G-HA, 10.3 µM.
One may read the Kd as the equilibrium constant for the complex coming apart. As for `C=CCNC1=C2C[C@@H](C)C[C@H](OC)[C@H](O)[C@@H](C)/C=C(\C)[C@H](OC(N)=O)[C@@H](OC)/C=C\C=C(/C)C(=O)NC(=CC1=O)C2=O` [Compound 17-AAG, 17-N-allylamino-17-demethoxygeldanamycin, reference compound], the dissociation constant (Kd) is 15.8 µM on PfHSP90-NTD (tryptophan fluorescence 346 nm, [SE] of triplicate measurements, read-out: Kd, PfHSP90-NTD) and 8.7 µM at PfHSP90 (tryptophan fluorescence 346 nm, [SE] of triplicate measurements, read-out: Kd, full-length PfHSP90).
A word on the IC50: it is the midpoint of a concentration-inhibition curve. For the molecule `CC(C)CCNc1ccc(-c2cnc3ccc(NC4CCN(C)CC4)nn23)cn1` [Compound 7], the IC50 turned out to be 0.484 µM at PfPKG and 15.5 µM at PfPKG T618Q. For the same molecule, the EC50 with 3D7 PKG T618Q amounted to 0.477 µM; in the assay on P. falciparum 3D7 [2] (3D7, 48 h, Table S1, single experiment with duplicate samples, or mean of triplicate experiments (SD), read-out: EC50 48 hours), 0.36 µM; in the assay with P. falciparum 3D7 [2] (3D7, 96 h, Table S1, single experiment with duplicate samples, or mean of triplicate experiments (SD), read-out: EC50 96 hours), 0.31 µM; with P. falciparum 3D7 [2] (3D7, SYBR green I, 48 h incubation, mean of three independent experiments (SD), read-out: EC50 after treatment for 48 h), 0.355 µM; with P. falciparum 3D7 [2] (3D7, SYBR green I, 96 h incubation, mean of three independent experiments (SD), read-out: EC50 after treatment for 96 h), 0.311 µM; in the assay with P. falciparum 3D7 [2] (3D7, Table 2, SYBR green I, 96 h, single experiment, or mean (SD) of duplicate assays, read-out: Parasite inhibition EC50, 3D7), 0.427 µM. In addition, the Kd at PfHSP90-NTD turned out to be 10.7 µM; on PfHSP90, 6.17 µM. In the assay on trophozoite cell lysate, the “Significant hit identified by LC-MS/MS” value is recorded as “HSP90”. The “Stage of action (before or after DNA synthesis)” value with P. falciparum 3D7 [1] (Table S1, ring-stage parasites, 10x EC50 for 48 h) is reported as “trophozoite”. For the same molecule, the “Developmental arrest seen in smears” value in the assay on P. falciparum 3D7 [1] (parasites about 21 h after invasion, 48 h at 10 times the EC50 determined by FACS (compound C 0.3 μM, compound D 4 μM)) is “failed to develop beyond late rings/early trophozoites”. Further, in the assay on P. falciparum 3D7 [1] (ring stage parasites treated with 10 times the 96-h EC50 for 48 h), the Stage of action result is recorded as “Trophozoite”.
For `CC(C)(C)n1nc(-c2cccc3ccccc23)c2c(N)ncnc21` [NA-PP1, 1-(1,1-dimethylethyl)-3-(1-naphthalenyl)-1H-pyrazolo[3,4-d]pyrimidin-4-amine], the EC50 is 14.3 µM in the assay with 3D7 CDPK1 T145T-HA and 15.7 µM in the assay with 3D7 CDPK1 T145G-HA. In addition, the IC50 is 0.15 µM at CDPK1 T145G and 6.01 µM against WT CDPK1. Besides, the “Increase in sensitivity of CDPK1 T145G over wild-type enzyme” value on CDPK1 T145G (ratio of IC50s) stood at 41 fold.
